The experiment addresses T1, recombinant human somatic ACE (Homo sapiens, UniProt P12821).
T1 construct: purchased R&D Systems
The experiment is described as follows: ACE activity, cleavage of fluorogenic peptide substrate. The experiment is classed as biochemical. The note with it: fluorogenic substrate 10 μM, 50 mM sodium borate buffer pH 8.2, 37° C. The source says:
Angiotensin converting enzyme (ACE) is a dipeptidyl carboxypeptidase that releases the C-terminal dipeptide His-Leu from decapeptide angiotensin I, converting it to the vasoconstrictor angiotensin II (Ang II). The assay for ACE activity will measure the cleavage of a fluorogenic peptide substrate, (7-methoxycoumarin-4-yl)acetyl-Arg-Pro-Pro-Gly-Phe-Ser-Ala-Phe-Lys(2,4 dinitrophenyl; R&D Systems). This peptide substrate contains a fluorescent 7-methoxycoumarin group that is internally quenched by resonance energy transfer to the 2,4-dinitrophenyl group. ACE cleaves the peptide between the Ala-Phe (between the fluorescent group and the quencher group), resulting in an increase in fluorescence. The assay is carried out in a 96-well plate. […] Fluorescence changes (relative fluorescence units/min, RFU/min) are measured using a fmax fluorescence microplate reader (Molecular Devices with SoftmaxPro software) at 37° C. with excitation and emission wavelengths of 320 nm and 405 nm, respectively. A background rate determined for samples containing no ACE is subtracted from all reactions to calculate the initial rates in RFU/min. […]
The ACE activity of the compound N-{2-([1,2]dithiolan-3-yl)-propionyl}-pyrrolidine-2-carboxylic acid was measured as described above.

Results on 1 compound are retold here after US20060166894A1, “Ace-inhibitors having antioxidant and no-donor activity” (Yissum Research Development Company of the Hebrew …, priority 2002, published 2006).

T1 sequence (P12821 30-1306): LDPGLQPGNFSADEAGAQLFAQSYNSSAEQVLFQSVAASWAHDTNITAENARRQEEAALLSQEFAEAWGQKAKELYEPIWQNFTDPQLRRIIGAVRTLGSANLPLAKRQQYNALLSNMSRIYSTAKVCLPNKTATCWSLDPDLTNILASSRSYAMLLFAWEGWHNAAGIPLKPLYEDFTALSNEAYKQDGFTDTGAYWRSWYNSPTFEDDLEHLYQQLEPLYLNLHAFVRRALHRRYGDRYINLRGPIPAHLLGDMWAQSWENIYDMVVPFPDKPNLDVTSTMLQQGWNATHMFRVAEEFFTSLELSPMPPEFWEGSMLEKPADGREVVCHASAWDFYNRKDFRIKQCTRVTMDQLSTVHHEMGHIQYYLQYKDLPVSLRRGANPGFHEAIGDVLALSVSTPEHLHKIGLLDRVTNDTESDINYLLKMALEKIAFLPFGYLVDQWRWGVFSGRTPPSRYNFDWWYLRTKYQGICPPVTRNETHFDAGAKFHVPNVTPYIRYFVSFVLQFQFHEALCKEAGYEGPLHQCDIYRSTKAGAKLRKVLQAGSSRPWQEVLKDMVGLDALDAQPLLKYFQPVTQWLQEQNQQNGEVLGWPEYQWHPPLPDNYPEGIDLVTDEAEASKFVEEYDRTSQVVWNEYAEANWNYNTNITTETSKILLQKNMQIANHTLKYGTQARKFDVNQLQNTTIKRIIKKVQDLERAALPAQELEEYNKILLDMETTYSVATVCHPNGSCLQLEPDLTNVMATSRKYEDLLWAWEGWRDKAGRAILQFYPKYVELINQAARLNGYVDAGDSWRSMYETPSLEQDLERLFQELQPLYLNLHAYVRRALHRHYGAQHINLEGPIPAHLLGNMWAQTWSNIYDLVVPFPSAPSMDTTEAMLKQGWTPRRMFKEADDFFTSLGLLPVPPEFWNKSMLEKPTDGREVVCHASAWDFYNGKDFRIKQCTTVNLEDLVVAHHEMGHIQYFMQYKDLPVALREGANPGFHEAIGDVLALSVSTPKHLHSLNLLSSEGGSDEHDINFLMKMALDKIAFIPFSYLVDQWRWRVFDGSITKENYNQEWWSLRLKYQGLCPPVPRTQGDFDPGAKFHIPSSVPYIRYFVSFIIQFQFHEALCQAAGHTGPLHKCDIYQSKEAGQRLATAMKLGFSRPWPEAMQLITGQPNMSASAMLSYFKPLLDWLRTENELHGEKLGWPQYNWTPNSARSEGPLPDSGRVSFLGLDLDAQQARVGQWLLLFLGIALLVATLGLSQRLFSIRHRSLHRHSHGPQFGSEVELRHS

In the case of `CC(C(=O)N1CCCC1C(=O)O)C1CCSS1` (stereo not shown) [N-{2-([1,2]Dithiolan-3-yl)-propionyl}-pyrrolidine-2-carboxylic acid], the concentration for half-maximal inhibition (IC50) worked out at 64 µM.
